Source: ChEMBL document CHEMBL3992552, “Mechanisms of action and structure-activity relationships of cytotoxic flavokawain derivatives” (Bioorg Med Chem, 2017)
Calls of active or inactive are those of the source. The calls are words filed in the database; no cut-off is given here.

Legend:
MDA-MB-231 [1] = assay: Cytotoxicity against human MDA-MB-231 cells assessed as cell survival at 50 uM after 48 hrs by Hoechst 33342 staining based assay relative to control; format: functional; details: MDA-MB-231, 48 h, read-out: Survival
Huh-7 [2] = assay: Cytotoxicity against human HuH7 cells assessed as cell viability after 48 hrs by Hoechst 33342 staining based assay; format: functional; details: Huh-7, 48 h
PC-3 [3] = assay: Cytotoxicity against human PC3 cells assessed as cell viability after 48 hrs by Hoechst 33342 staining based assay; format: functional; details: PC-3, 48 h
Fibroblast = assay: Cytotoxicity against human fibroblasts assessed as cell viability after 48 hrs by Hoechst 33342 staining based assay
[4] = Selectivity index, ratio of IC50 for human fibroblasts to IC50 for human HuH7 cells
[5] = Selectivity index, ratio of IC50 for human fibroblasts to IC50 for human Caco2 cells
[6] = Selectivity index, ratio of IC50 for human fibroblasts to IC50 for human MDA-MB-231 cells
[7] = Selectivity index, ratio of IC50 for human fibroblasts to IC50 for human MCF7 cells
HCT-116 [8] = assay: Induction of apoptosis in human HCT116 cells harboring wild-type p53 assessed as increase in late apoptosis at 2 times IC50 after 48 hrs by YoPro/propidium iodide/Hoechst staining based assay; format: functional, cell-based
PC-3 [9] = assay: Induction of apoptosis in human PC3 cells harboring p53 mutant assessed as increase in early apoptosis at 2 times IC50 after 48 hrs by YoPro/propidium iodide/Hoechst staining based assay; format: functional, cell-based
MCF7 [10] = assay: Induction of apoptosis in human MCF7 cells harboring wild-type p53 assessed as increase in late apoptosis at 2 times IC50 after 24 hrs by YoPro/propidium iodide/Hoechst staining based assay; format: functional, cell-based
PC-3 [11] = assay: Induction of apoptosis in human PC3 cells harboring p53 mutant assessed as increase in cleaved caspase3 at 2 times IC50 after 48 hrs by Hoechst staining based assay; format: functional, cell-based
MDA-MB-231 [12] = assay: Induction of apoptosis in human MDA-MB-231 cells harboring p53 mutant assessed as increase in cleaved caspase3 at 2 times IC50 after 24 hrs by Hoechst staining based assay; format: functional, cell-based
Huh-7 [13] = assay: Cell cycle arrest in human HuH7 cells assessed as mitotic index at 10 uM measured after 48 hrs by Hoechst staining based fluorescence assay (reference value: 2.2); format: functional
Caco-2 [14] = assay: Cell cycle arrest in human Caco2 cells assessed as accumulation at S phase at 10 uM measured after 48 hrs by Hoechst/BrdU staining based fluorescence assay (reference value: […]); format: functional
MDA-MB-231 [15] = assay: Cell cycle arrest in human MDA-MB-231 cells harboring p53 mutant assessed as mitotic index at 10 uM measured after 48 hrs by Hoechst staining based fluorescence assay (reference value: 2.1); format: functional
HCT-116 [16] = assay: Cell cycle arrest in human HCT116 cells harboring wild-type p53 assessed as accumulation at S phase at 10 uM measured after 48 hrs by Hoechst/BrdU staining based fluorescence assay (reference value: 68.4%); format: functional
PC-3 [17] = assay: Cell cycle arrest in human PC3 cells harboring p53 mutant assessed as mitotic index at 10 uM measured after 48 hrs by Hoechst staining based fluorescence assay (reference value: 2.5); format: functional
NCI-H727 [18] = assay: Cell cycle arrest in human NCI-H727 cells harboring p53 mutant assessed as mitotic index at 10 uM measured after 48 hrs by Hoechst staining based fluorescence assay (reference value: 1.1); format: functional
NCI-H727 [19] = assay: Cell cycle arrest in human NCI-H727 cells harboring p53 mutant assessed as accumulation at S phase at 10 uM measured after 48 hrs by Hoechst/BrdU staining based fluorescence assay (reference value: 40.3%); format: functional
HaCaT [20] = assay: Cell cycle arrest in human HaCaT cells harboring […] p53 assessed as mitotic index at 10 uM measured after 48 hrs by Hoechst staining based fluorescence assay (reference value: 2.6); format: functional
Huh-7 [21] = assay: Cell cycle arrest in human HuH7 cells assessed as mitotic index at 25 uM measured after 48 hrs by Hoechst staining based fluorescence assay (reference value: 2.2); format: functional
MDA-MB-231 [22] = assay: Cell cycle arrest in human MDA-MB-231 cells harboring p53 mutant assessed as mitotic index at 25 uM measured after 48 hrs by Hoechst staining based fluorescence assay (reference value: 2.1); format: functional
MDA-MB-231 [23] = assay: Cell cycle arrest in human MDA-MB-231 cells harboring p53 mutant assessed as accumulation at S phase at 25 uM measured after 48 hrs by Hoechst/BrdU staining based fluorescence assay (reference value: 42.2%); format: functional
HCT-116 [24] = assay: Cell cycle arrest in human HCT116 cells harboring wild-type p53 assessed as mitotic index at 25 uM measured after 48 hrs by Hoechst staining based fluorescence assay (reference value: 2.3); format: functional
HCT-116 [25] = assay: Cell cycle arrest in human HCT116 cells harboring wild-type p53 assessed as accumulation at S phase at 25 uM measured after 48 hrs by Hoechst/BrdU staining based fluorescence assay (reference value: 68.4%); format: functional
PC-3 [26] = assay: Cell cycle arrest in human PC3 cells harboring p53 mutant assessed as mitotic index at 25 uM measured after 48 hrs by Hoechst staining based fluorescence assay (reference value: 2.5); format: functional
PC-3 [27] = assay: Cell cycle arrest in human PC3 cells harboring p53 mutant assessed as accumulation at S phase at 25 uM measured after 48 hrs by Hoechst/BrdU staining based fluorescence assay (reference value: 40.8%); format: functional
HaCaT [28] = assay: Cell cycle arrest in human HaCaT cells harboring […] p53 assessed as mitotic index at 25 uM measured after 48 hrs by Hoechst staining based fluorescence assay (reference value: 2.6); format: functional
HaCaT [29] = assay: Cell cycle arrest in human HaCaT cells harboring […] p53 assessed as accumulation at S phase at 25 uM measured after 48 hrs by Hoechst/BrdU staining based fluorescence assay (reference value: 52.3%); format: functional
Caco-2 [30] = assay: Cell cycle arrest in human Caco2 cells assessed as accumulation at M phase by Hoechst staining based fluorescence assay; format: functional
PC-3 [31] = assay: Cell cycle arrest in human PC3 cells assessed as accumulation at M phase by Hoechst staining based fluorescence assay; format: functional
NCI-H727 [32] = assay: Cell cycle arrest in human NCI-H727 cells assessed as accumulation at G1/S phase by Hoechst staining based fluorescence assay; format: functional
HaCaT [33] = assay: Cell cycle arrest in human HaCaT cells assessed as accumulation at M phase by Hoechst staining based fluorescence assay; format: functional
HCT-116 [34] = assay: Induction of apoptosis in human HCT116 cells harboring wild-type p53 assessed as upregulation of p21 measured after 48 hrs by Hoechst staining based fluorescence assay; format: functional, cell-based
MCF7 [35] = assay: Induction of apoptosis in human MCF7 cells harboring wild-type p53 assessed as upregulation of p21 measured after 48 hrs by Hoechst staining based fluorescence assay; format: functional, cell-based
HCT-116 [36] = assay: Induction of apoptosis in human HCT116 cells harboring wild-type p53 assessed as upregulation of cyclinB1 measured after 48 hrs by Hoechst staining based assay; format: functional, cell-based
PC-3 [37] = assay: Induction of apoptosis in human PC3 cells harboring p53 mutant assessed as upregulation of cyclinB1 after 48 hrs by Hoechst staining based assay; format: functional, cell-based

SMILES | viability at 50 µM (MDA-MB-231 [1]) [%] | IC50 (Huh-7 [2]) [µM] | IC50 (PC-3 [3]) [µM] | IC50 (Fibroblast) [µM] | Ratio IC50 [4] | Ratio IC50 [5] | Ratio IC50 [6] | Ratio IC50 [7] | Activity (HCT-116 [8]) | Activity (PC-3 [9]) | Activity (MCF7 [10]) | Activity (PC-3 [11]) | Activity (MDA-MB-231 [12]) | Activity_index (Huh-7 [13]) | Activity (Caco-2 [14]) [%] | Activity_index (MDA-MB-231 [15]) | Activity (HCT-116 [16]) [%] | Activity_index (PC-3 [17]) | Activity_index (NCI-H727 [18]) | Activity (NCI-H727 [19]) [%] | other results
COc1cc(OC)c(C(=O)/C=C/c2ccc(F)cc2)c(OC)c1 | 12 | 14.6 | 5.5 | > 20 | >3.4 | >9.1 | >4.7 | >6.5 | Active | Active | Active | Active | Active | 4.7 | 39 | 22 | 23 | 14.6 | 1.1 | 31 | Activity_index (HaCaT [20]): 10.7; Activity_index (Huh-7 [21]): 1.3; Activity_index (MDA-MB-231 [22]): 4.8; Activity (MDA-MB-231 [23]): 10%; Activity_index (HCT-116 [24]): 0.4; Activity (HCT-116 [25]): 0.7%; Activity_index (PC-3 [26]): 0.4; Activity (PC-3 [27]): 0.4%; Activity_index (HaCaT [28]): 0; Activity (HaCaT [29]): 0.4%; Activity (Caco-2 [30]): Active; Activity (PC-3 [31]): Active; Activity (NCI-H727 [32]): Active; Activity (HaCaT [33]): Active; Activity (HCT-116 [34]): Active; Activity (MCF7 [35]): Active; Activity (HCT-116 [36]): Active; Activity (PC-3 [37]): Active
COc1cc(OC)c(C(=O)/C=C/c2ccccc2SC)c(OC)c1 | 36 | 14.1 | 7.6 | > 20 | 2.3 | 3.6 | 3.2 | 3.4 | Active | Active | Active | Active | Active | 6.5 | 36 | 18 | 25 | 12.1 | 1 | 35 | Activity_index (HaCaT [20]): 18.9; Activity_index (Huh-7 [21]): 0.4; Activity_index (MDA-MB-231 [22]): 13.2; Activity (MDA-MB-231 [23]): 16%; Activity_index (HCT-116 [24]): 0.4; Activity (HCT-116 [25]): 0.5%; Activity_index (PC-3 [26]): 0.3; Activity (PC-3 [27]): 0%; Activity_index (HaCaT [28]): 0.1; Activity (HaCaT [29]): 0%; Activity (Caco-2 [30]): Active; Activity (PC-3 [31]): Active; Activity (NCI-H727 [32]): Active; Activity (HaCaT [33]): Active; Activity (HCT-116 [34]): Active; Activity (MCF7 [35]): Active; Activity (HCT-116 [36]): Active; Activity (PC-3 [37]): Active
COc1cc(OC)c(C(=O)/C=C/c2ccc(Br)cc2)c(OC)c1 | 6 | 13.9 | 7.1 | > 20 | >3.6 | >7.4 | >4.5 | >5.3 | Active | Active | Active | Active | Active | 10.4 | 36 | 15 | 68 | 2.5 | 1 | 39 | Activity_index (HaCaT [20]): 19; Activity_index (Huh-7 [21]): 0.1; Activity_index (MDA-MB-231 [22]): 3.4; Activity (MDA-MB-231 [23]): 44%; Activity_index (HCT-116 [24]): 0.6; Activity (HCT-116 [25]): 68%; Activity_index (PC-3 [26]): 0; Activity (PC-3 [27]): 0.4%; Activity_index (HaCaT [28]): 0; Activity (HaCaT [29]): 0.3%; Activity (Caco-2 [30]): Active; Activity (PC-3 [31]): Active; Activity (NCI-H727 [32]): Active; Activity (HaCaT [33]): Active; Activity (HCT-116 [34]): Active; Activity (MCF7 [35]): Active; Activity (HCT-116 [36]): Active; Activity (PC-3 [37]): Active
COc1cc(OC)c(C(=O)/C=C/c2ccccc2)c(OC)c1 | 13 | 15.5 | 5.1 | > 20 | >3.2 | >8.6 | >3.9 | >5.3 | Active | Active | Active | Active | Active | 8.5 | 38 | 21 | 19 | 18 | 1.3 | 34 | Activity_index (HaCaT [20]): 18.3; Activity_index (Huh-7 [21]): 0.6; Activity_index (MDA-MB-231 [22]): 13.2; Activity (MDA-MB-231 [23]): 23%; Activity_index (HCT-116 [24]): 0.8; Activity (HCT-116 [25]): 2.6%; Activity_index (PC-3 [26]): 1.2; Activity (PC-3 [27]): 1.7%; Activity_index (HaCaT [28]): 0.1; Activity (HaCaT [29]): 0.1%; Activity (Caco-2 [30]): Active; Activity (PC-3 [31]): Active; Activity (NCI-H727 [32]): Active; Activity (HaCaT [33]): Active; Activity (HCT-116 [34]): Active; Activity (MCF7 [35]): Active; Activity (HCT-116 [36]): Active; Activity (PC-3 [37]): Active
COc1cccc(/C=C/C(=O)c2c(OC)cc(OC)cc2OC)c1 | 4 | 8.9 | 3.1 | > 20 | >5.6 | >12.8 | >5.7 | >5.3 | Active | Active | Active | Active | Active | 12.3 | 31 | 25 | 20 | 27.6 | 1.7 | 37 | Activity_index (HaCaT [20]): 17.5; Activity_index (Huh-7 [21]): 1; Activity_index (MDA-MB-231 [22]): 3.5; Activity (MDA-MB-231 [23]): 12%; Activity_index (HCT-116 [24]): 1.2; Activity (HCT-116 [25]): 0.6%; Activity_index (PC-3 [26]): 0.3; Activity (PC-3 [27]): 0.9%; Activity_index (HaCaT [28]): 0.1; Activity (HaCaT [29]): 0%; Activity (Caco-2 [30]): Active; Activity (PC-3 [31]): Active; Activity (NCI-H727 [32]): Active; Activity (HaCaT [33]): Active; Activity (HCT-116 [34]): Active; Activity (MCF7 [35]): Active; Activity (HCT-116 [36]): Active; Activity (PC-3 [37]): Active
